Several values for one entry are separate records, joined by “and”; a condition that tells them apart may be missing. Equal values may be shown once. Read-outs that look alike come from different tables or passages of the source.
Columns and labels:
[1] = biological target: T1, FFA1 (Homo sapiens, UniProt O14842); assay: Ca2+ mobilisation (Fura2) in Flp-In T-REx 293 cells expressing Nluc-FFA1, FFA1-Nluc or untagged FFA1; type: cell-based; design: expressed in transfected cells
Outline: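 520 nm emission read at 340 and 380 nm excitation over 90 s spanning compound addition. Response taken as peak 340/380 ratio after subtracting pre-addition ratios.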

[2] = biological target: T2, FFA1-Nluc (Homo sapiens, UniProt O14842); assay: DISCo-BRET (endpoint, spectra scan, kinetics) with TUG-2591 and TUG-2597 at C terminal Nluc tagged FFA1; type: binding; design: expressed in transfected cells; conditions: for Specific BRET (690/450): Sup Fig 3Bi
Outline: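 After Nano-Glo substrate (1:800 final), ligand-treated FFA1-Nluc or Nluc-FFA1 cells, doxycycline-induced (100 ng/mL), were read. Kinetic association/dissociation runs were at 25 °C; endpoint and 440–740 nm spectra came after 5 min at 37 °C. Non-specific signal came from competing ligands at high concentration.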

[3] = biological target: T1, FFA1; assay: NanoBiT arrestin-3 recruitment in HEK293T cells; type: cell-based; design: expressed in transfected cells; host or cells: HEK293T, transient; conditions: ± SEM
Method: For arrestin-3 recruitment assays, HEK293T cells were transfected with FFA1 receptor and a bystander NanoBiT split luciferase arrestin-3 recruitment biosensor. Cells were transfected and plated simultaneously in a reverse transfection protocol into a poly-D-lysine coated white 96-well plate. Per well, 60,000 cells were transfected with 5 ng plasmid expressing LgBiT with a N-terminal Lyn11 plasma membrane localisation tag, 5 ng plasmid expressing bovine arrestin-3 fused at its N-terminal to SmBiT tag and 30 ng plasmid expressing the human FFA1 receptor. Total DNA was made up to 100 ng total/well with empty pcDNA3 vector and transfected to cell suspension with 0.6 µg/well PEI. Following transfection cells were cultured for 24 h before use. On the day of assay, cells were washed twice with HBSS and incubated in HBSS for 30 min at 37 °C. NanoGlo substrate was added at a final 1:800 dilution and incubated in the dark for 10 min at 37 °C. […] Raw luminescence values were divided by baseline signal (average of first 5 data points prior to compound addition) and vehicle measurements subtracted from agonist treatment. Area under curves were calculated and concentration response curves plotted.

[4] = biological target: T2, FFA1-Nluc; assay: Bystander BRET internalisation assay, FFA1-Nluc in HEK293T cells; type: cell-based; design: expressed in transfected cells; host or cells: HEK293T (ATCC, CRL-3216), transient; conditions: in words; up to 60 min
Method: Cells were transfected using a reverse transfection protocol while plating into a poly-D-lysine coated white 96-well plates. Cells were plated at 60,000 cells with 100 ng of plasmid DNA and 0.6 µg of polyethyleneimine (PEI) per well. Cells were cultured for 24 h before washing with HBSS and incubating in HBSS at 37 °C for 30 min. NanoGlo substrate was added a final 1:800 dilution and plates incubated for 10 min at 37 °C. […] After 5 min of baseline measurements, readings were paused and test compounds added to the plate.

[5] = TUG-2597 […] first, then increasing TUG-2591 (Fig. 6H)

T1 sequence (O14842 whole entry): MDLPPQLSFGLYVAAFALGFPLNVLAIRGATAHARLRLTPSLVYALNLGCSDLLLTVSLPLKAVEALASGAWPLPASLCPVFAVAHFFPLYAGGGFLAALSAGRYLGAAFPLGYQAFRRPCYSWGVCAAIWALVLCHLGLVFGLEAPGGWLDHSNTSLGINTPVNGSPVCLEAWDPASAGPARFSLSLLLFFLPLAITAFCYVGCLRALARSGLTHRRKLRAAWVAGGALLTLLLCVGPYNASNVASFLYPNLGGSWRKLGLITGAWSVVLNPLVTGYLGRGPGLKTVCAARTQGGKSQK
T2 sequence (O14842 whole entry): as above

Cc1cc(OCCCNC(=O)CCCN2\C(=C/C=C/C=C/C3=[N+](C)c4ccc(S(=O)(=O)[O-])cc4C3(C)C)C(C)(C)c3ccccc32)ccc1-c1cccc(COc2ccc(CCC(=O)O)c(F)c2)c1 [TUG-2591]
pEC50 ([1]; Ca2+ data, mean±SEM, NR = No response): 6.47±0.16 | Ca2+ Response as a % of T360 Response ([1]; FFA1-Nluc cells, log[ligand] -6.5, technical replicates): 55.49% and 52.86% and 28.95% and 51.39% and 72.16% and 71.58% and 70.75% and 43.70% and 49.38% | Ca2+ Response as a % of T360 Response ([1]; FFA1-Nluc cells, log[ligand] -7, technical replicates): 8.16% | Ca2+ Response as a % of T360 Response ([1]; Nluc-FFA1 cells, log[ligand] -6.5, technical replicates): 34.81% and 37.98% and 35.96% and 31.33% and 37.74% and 35.87% and 21.49% and 18.21% and 19.57% | Ca2+ Response as a % of T360 Response ([1]; Nluc-FFA1 cells, log[ligand] -7, technical replicates): 17.82% and 28.31% and 29.67% and 8.27% and 1.38% and 7.74% and -0.10% and 0.12% | Ca2+ Response as a % of T360 Response ([1]; log[Ligand] -5, single technical replicates): 61.66% and 51.52% and 46.84% and 86.56% and 82.15% and 71.83% and 71.15% and 53.72% | Ca2+ Response as a % of T360 Response ([1]; log[Ligand] -5.5, single technical replicates): 62.71% and 47.16% and 58.62% and 85.53% and 80.90% and 77.51% and 55.09% and 51.22% | Ca2+ Response as a % of T360 Response ([1]; log[Ligand] -6, single technical replicates): 62.82% and 60.50% and 58.53% and 87.03% and 71.98% and 71.50% and 53.51% and 60.26% and 56.70% | Ca2+ Response as a % of T360 Response ([1]; log[Ligand] -6.5, single technical replicates): 34.81% and 37.98% and 35.96% and 31.33% and 37.74% and 35.87% and 21.49% and 18.21% and 19.57% | Ca2+ Response as a % of T360 Response ([1]; log[Ligand] -7, single technical replicates): 17.82% and 28.31% and 29.67% and 8.27% and 1.38% and 7.74% and -0.10% and 0.12% and -1.53% | Ca2+ Response as a % of T360 Response ([1]; log[Ligand] -8, single technical replicates): 10.54% and 11.17% and 19.68% and 8.20% and 7.07% and 9.22% and 0.11% and 1.85% and 0.30% | Ca2+ Response as a % of T360 Response ([1]; log[Ligand] -9, single technical replicates): 1.04% and 5.22% and 4.78% and 4.50% and 4.79% and 3.13% and 2.97% and -0.0331% and -1.56% | EMax ([1]; percentage of response to 10 μM T360, NR = No response): 73±9% | Ca2+ Response as a % of T360 Response ([1]; untagged FFA1 cells, log[ligand] -6.5, technical replicates): 69.40% and 67.64% and 73.36% and 82.87% and 85.96% and 73.97% and 51.16% and 43.14% and 56.15% and 83.71% and 86.53% and 111.93% | Specific BRET (540/450) ([2]; 10 nM TUG-2591, + TUG-2597): 0.2063 and 0.1967 and 0.1514 and 0.1434 and 0.1849 and 0.1798 | Kd ([2]; FFA1-Nluc, […] TUG-2597, read-out: Kd, DISCo-BRET saturation SulfoCy5/NBD (Sup Fig 3Biii)): 64 nM | Kd ([2]; FFA1-Nluc, […] TUG-2597, read-out: Kd, DISCo-BRET saturation SulfoCy5/NBD (Sup Fig 3Ciii)): 140 nM | Kd ([2]; FFA1-Nluc, […] TUG-2597, read-out: Kd, DISCo-BRET saturation SulfoCy5/Nluc (Sup Fig 3Bi)): 57 nM | Kd ([2]; FFA1-Nluc, […] TUG-2597, read-out: Kd, DISCo-BRET saturation SulfoCy5/Nluc (Sup Fig 3Ci)): 81 nM | Specific BRET (690/450) ([2]; TUG-2591 56 nM, with TUG-2597): 0.0527 and 0.0499 and 0.0741 and 0.0890 and 0.0785 and 0.0761 and 0.0666 and 0.0608 | Specific BRET (690/450) ([2]; TUG-2591 100 nM, with TUG-2597): 0.0715 and 0.0673 and 0.0821 and 0.0713 and 0.0718 and 0.0721 and 0.1131 and 0.1106 | Specific BRET (540/450) ([2]; Sup Fig 3Bii, TUG-2591 10 nM, with TUG-2597 + TUG-905): 0.2427 and 0.2316 and 0.2211 and 0.2363 and 0.1842 and 0.1961 | Specific BRET (540/450) ([2]; Sup Fig 3Bii, TUG-2591 56 nM, with TUG-2597): 0.1505 and 0.1512 and 0.1284 and 0.1402 and 0.0985 and 0.0926 | Specific BRET (540/450) ([2]; Sup Fig 3Bii, TUG-2591 56 nM, with TUG-2597 + TUG-905): 0.1690 and 0.2045 and 0.2352 and 0.2122 and 0.1905 and 0.1776 | Specific BRET (540/450) ([2]; Sup Fig 3Bii, TUG-2591 100 nM, with TUG-2597): 0.1528 and 0.1591 and 0.1221 and 0.0973 and 0.0962 and 0.0870 | Specific BRET (540/450) ([2]; Sup Fig 3Bii, TUG-2591 100 nM, with TUG-2597 + TUG-905): 0.1931 and 0.1764 and 0.2349 and 0.2150 and 0.1675 and 0.1714 | Specific BRET (690/540) ([2]; Sup Fig 3Biii, TUG-2591 56 nM, with TUG-2597): 0.0349 and 0.0333 and 0.0476 and 0.0572 and 0.0548 and 0.0534 and 0.0437 and 0.0392 | Specific BRET (690/540) ([2]; Sup Fig 3Biii, TUG-2591 100 nM, with TUG-2597): 0.0480 and 0.0458 and 0.0524 and 0.0450 and 0.0542 and 0.0749 and 0.0751 | kOff DISCo-BRET SulfoCy5/NBD ([2]; TUG-2591 100 nM + TUG-2597 […], displacing ligand TUG-905 10 μM): 0.0006 s⁻¹ | kOn DISCo-BRET Single Concentration ([2]; TUG-2591 100 nM added after TUG-2597 […]): 20000 M⁻¹ s⁻¹ | Kd ([2]; TUG-2591 added after TUG-2597, read-out: Kd DISCo-BRET Single Concentration (kinetic)): 91 nM | kOff DISCo-BRET Multiple Concentration [2, 5]: 0.00183 s⁻¹ | kOn DISCo-BRET Multiple Concentration [2, 5]: 8333.33 M⁻¹ s⁻¹ | Kd ([2]; TUG-2597 […] first, then increasing TUG-2591 (Fig. 6H), read-out: Kd DISCo-BRET Multiple Concentration (kinetic)): 220 nM | Specific BRET (690/540) ([2]; [TUG-2591] 100 nM, with TUG-2597): 0.0559 and 0.0537 and 0.05545 and 0.05225 and 0.03465 and 0.04165 | kOff DISCo-BRET Single Concentration ([2]; based on the value calculated in the multiple ligand experiment in Fig. 6H): 0.00183 s⁻¹ | Kd ([2]; in presence of […] TUG-2597, either construct, read-out: Kd, DISCo-BRET saturation (area under SulfoCy5 / NBD peaks)): 50 to 100 nM | kOff DISCo-BRET SulfoCy5/NBD ([2]; tracers 1.0 μΜ / 3.16 μΜ, displacing ligand TUG-905 (30 μΜ)): 0.000533 s⁻¹ | EMax (% TUG-905) arrestin-3 recruitment ([3]; percentage of the response to 10 μM TUG-905): 91 ± 6% | pEC50 arrestin-3 recruitment ([3]; N=3): 7.5 ± 0.4 | internalization of FFA1-Nluc [4]: No internalization
